Reference: the NIST ThermoML archive (doi:10.1016/j.fluid.2011.09.037)

Assay: osmotic coefficient (dimensionless); mn = molality of the nth substance listed, in mol/kg
Conditions: 323.15 K, 101 kPa, Liquid, vapor pressure osmometer

CCCCCO [pentan-1-ol] + CCCCCC[n+]1ccn(C)c1.O=S(=O)([N-]S(=O)(=O)C(F)(F)F)C(F)(F)F
Conditions | osmotic coefficient
m1 = 0.0502 | 0.467
m1 = 0.0781 | 0.411
m1 = 0.1123 | 0.372
m1 = 0.1977 | 0.313
m1 = 0.3009 | 0.267
m1 = 0.4054 | 0.24
m1 = 0.4903 | 0.214
m1 = 0.8026 | 0.178
m1 = 1.11 | 0.163
m1 = 1.368 | 0.149
m1 = 1.723 | 0.12
m1 = 2.211 | 0.095
m1 = 2.657 | 0.096
m1 = 3.231 | 0.091

CCC(C)O (configuration not stated) [butan-2-ol] + CCCCCC[n+]1ccn(C)c1.O=S(=O)([N-]S(=O)(=O)C(F)(F)F)C(F)(F)F
Conditions | osmotic coefficient
m1 = 0.0478 | 0.834
m1 = 0.076 | 0.769
m1 = 0.1019 | 0.659
m1 = 0.2141 | 0.532
m1 = 0.3112 | 0.443
m1 = 0.4257 | 0.403
m1 = 0.5354 | 0.369
m1 = 0.72 | 0.324
m1 = 1.008 | 0.285
m1 = 1.311 | 0.251
m1 = 1.722 | 0.231
m1 = 2.107 | 0.219
m1 = 2.477 | 0.214
m1 = 2.87 | 0.195

CCCCO [butan-1-ol] + CCCCCC[n+]1ccn(C)c1.O=S(=O)([N-]S(=O)(=O)C(F)(F)F)C(F)(F)F
Conditions | osmotic coefficient
m1 = 0.0466 | 0.746
m1 = 0.0832 | 0.604
m1 = 0.1034 | 0.574
m1 = 0.1973 | 0.461
m1 = 0.2989 | 0.411
m1 = 0.3965 | 0.362
m1 = 0.4907 | 0.343
m1 = 0.6881 | 0.295
m1 = 0.9952 | 0.245
m1 = 1.304 | 0.212
m1 = 1.685 | 0.2
m1 = 2.109 | 0.18
m1 = 2.479 | 0.172
m1 = 2.947 | 0.161
m1 = 3.291 | 0.162

CCCO [propan-1-ol] + CCCCCC[n+]1ccn(C)c1.O=S(=O)([N-]S(=O)(=O)C(F)(F)F)C(F)(F)F
Conditions | osmotic coefficient
m1 = 0.0281 | 0.906
m1 = 0.0539 | 0.866
m1 = 0.081 | 0.797
m1 = 0.1046 | 0.716
m1 = 0.2004 | 0.621
m1 = 0.3018 | 0.523
m1 = 0.4154 | 0.46
m1 = 0.519 | 0.445
m1 = 0.8326 | 0.386
m1 = 1.14 | 0.342
m1 = 1.432 | 0.316
m1 = 1.742 | 0.306
m1 = 2.247 | 0.288
m1 = 2.739 | 0.265
m1 = 3.188 | 0.247

CC(C)O [propan-2-ol] + CCCCCC[n+]1ccn(C)c1.O=S(=O)([N-]S(=O)(=O)C(F)(F)F)C(F)(F)F
Conditions | osmotic coefficient
m1 = 0.0549 | 0.902
m1 = 0.0805 | 0.876
m1 = 0.0992 | 0.841
m1 = 0.2037 | 0.678
m1 = 0.3092 | 0.572
m1 = 0.4087 | 0.524
m1 = 0.5171 | 0.485
m1 = 0.8189 | 0.429
m1 = 1.111 | 0.387
m1 = 1.405 | 0.355
m1 = 1.712 | 0.321
m1 = 2.193 | 0.314
m1 = 2.655 | 0.304
m1 = 3.207 | 0.294
